Source: patent publication EP0897904B1, “Fungicidal 2-methoxybenzophenones” (BASF AKTIENGESELLSCHAFT, priority 1997, dated 1999)
Read-outs that look alike come from different tables or passages of the source.

Key:
Format in all cases: in vivo
[1] = test system: Blumeria (Erysiphe) graminis DC. f.sp. tritici E. Marchal; experiment: Curative and residual control test, Wheat Powdery Mildew (WPM); settings: read-out: Disease control (% efficacy)
Description: (§1) • (a) Wheat Powdery Mildew (WPM): HOST: Wheat (Triticum aestivum L.) variety Kanzler PATHOGEN: Blumeria (Erysiphe) graminis DC. f.sp. tritici E. Marchal • (b) Cucumber Powdery Mildew (QPM): HOST: Cucumber (Cucumis sativus L.) variety Bush pickle PATHOGEN: Erysiphe cichoracearum DC
(§2) This test procedure is for curative and residual control of powdery mildew diseases. • 1. Wheat seed (approximately 8-10/pot) or cucumber seed (1 seed / pot) is planted in 6 cm diameter plastic pots and maintained in the greenhouse. • 2. When the primary leaf (wheat) or the cotyledons (cucumber) is/are fully expanded, formulated test compounds are sprayed with a single nozzle overhead track sprayer at a rate of 200 l/ha. Plants are then allowed to air-dry. • 3. Inoculation precedes treatment by 2 or 3 days in the case of curative evaluations and follows treatment by 3 or 4 days in case of residual evaluations. For inoculation, plants are set up on greenhouse benches with bottom watering mats and inoculated by dusting them with conidia from powdery mildew infected plants (stock cultures at an age of 10-14 days). Between inoculation and treatment for curative evaluations and between treatment and inoculation for residual evaluations, plants are maintained in the greenhouse with bottom watering. • 4. Disease on the primary leaf (wheat) or on the cotyledons (cucumber) as percent leaf area with disease symptoms/signs is evaluated about 7 days after inoculation. In the case of wheat, the tips and bases of the leaves are excluded from the evaluation. Percent disease control is then calculated by the following formula: % disease control = 100 -(% infection in treated plants)/(% infection in untreated plants)x 100 [formula]
(§3) • 1. Technical compounds are formulated in a solvent/surfactant system consisting of 5% acetone and 0.05% Tween 20 in deionized water. Compounds are dissolved in acetone prior to addition of the water; the Tween 20 can be added through either the acetone or the water. Dilutions are made using the solvent/surfactant system. Formulated compounds are prepared using deionized water. • 2. Two kinds of controls are included: • Plants treated with the solvent/surfactant solution and inoculated (Solvent Blank). • Untreated plants which are inoculated (Inoculated Control).

[2] = test system: Blumeria (Erysiphe) graminis DC. f.sp. hordei E. Marchal; experiment: Zero day protectant test, Barley Powdery Mildew (BPM); settings: barley variety Golden Promise, 0 day protectant test, side-by-side, technical material in 0.5% acetone 0.05% Tween 20 water
Description: (§4) • (a) Wheat Powdery Mildew (WPM): HOST: Wheat (Triticum aestivum L.) variety Kanzler PATHOGEN: Blumeria (Erysiphe) graminis DC. f.sp. tritici E. Marchal • (b) Barley Powdery Mildew (BPM): HOST: Barley (Hordeum vulgare L.) variety Golden Promise PATHOGEN: Blumeria (Erysiphe) graminis DC. f.sp. hordei E. Marchal
(§5) This test is a zero day protectant test for control of wheat and barley powdery mildews. • 1. Wheat or barley seed (approximately 8-10/pot) is planted in 6 cm diameter plastic pots and maintained in the greenhouse. • 2. When the primary leaf is fully expanded, formulated test compounds are sprayed with a single nozzle overhead track sprayer at a rate of 200 l/ha. Plants are then allowed to air-dry. • 3. Inoculation follows about three hours after compound application. Plants are set up on greenhouse benches with bottom watering mats and inoculated by dusting them with conidia from powdery mildew infected plants (stock cultures at an age of 10-14 days). • 4. Disease on the primary leaf as percent leaf area with disease symptoms/signs is evaluated about 7 days after inoculation. The tips and bases of the leaves are excluded from the evaluation. Percent disease control is then calculated by the following formula: % disease control = 100 -(% infection in treated plants)/(% infection in untreated plants)x 100 [formula]
as §3, with “system. Test compounds are typically tested over a range of concentrations covering several orders of magnitude and then ED values are calculated for comparison of compounds.” for “system.”
(§6) Compounds applied as technical material formulated in 0.5% acetone 0.05% Tween 20 water

[3] = test system: Erysiphe cichoracearum DC; experiment: Curative and residual control test, Cucumber Powdery Mildew (QPM); settings: Golovinomyces cichoracearum, 72 h, read-out: Disease control (% efficacy); for Emax at 12.5 ppm: QPM 3 da R (3 day residual), 12,5 ppm; for Emax at 125 ppm / Emax at 1250 ppm: QPM 3 da R (3 day residual)
Description: as §1, §2, §3

[4] = test system: Blumeria (Erysiphe) graminis DC. f.sp. tritici E. Marchal; experiment: Zero day protectant test, Wheat Powdery Mildew (WPM); settings: wheat variety Kanzler, 0 day protectant test, side-by-side, technical material in 0.5% acetone 0.05% Tween 20 water
Description: as §4, §5
as §3, with “system. Test compounds are typically tested over a range of concentrations covering several orders of magnitude and then ED values are calculated for comparison of compounds.” for “system.”
as §6

## COc1cc(C)c(C(=O)c2c(C)cccc2OC)c(OC)c1OC [Example 1, 6,6'-dimethyl-2,2',3',4'-tetramethoxy-benzophenone]
[1]; 48 h, WPM 2 da C (2 day curative), 12,5 ppm, Test A
  percent disease control at 12.5 ppm: 69%
[1]; 48 h, WPM 2 da C (2 day curative), 12,5 ppm, Test B
  Emax at 12.5 ppm: 52%
[1]; 48 h, WPM 2 da C (2 day curative), 125 ppm, Test A
  percent disease control at 125 ppm: 79%
[1]; 48 h, WPM 2 da C (2 day curative), 125 ppm, Test B
  Emax at 125 ppm: 65%
[1]; 48 h, WPM 2 da C (2 day curative), 1250 ppm, Test A
  percent disease control at 1250 ppm: 88%
[1]; 48 h, WPM 2 da C (2 day curative), 1250 ppm, Test B
  Emax at 1250 ppm: 85%
[1]; 72 h, WPM 3 da R (3 day residual), 12,5 ppm, Test A
  percent disease control at 12.5 ppm: 90%
[1]; 72 h, WPM 3 da R (3 day residual), 12,5 ppm, Test B
  Emax at 12.5 ppm: 100%
[1]; 72 h, WPM 3 da R (3 day residual), 125 ppm, Test A
  percent disease control at 125 ppm: 100%
[1]; 72 h, WPM 3 da R (3 day residual), 125 ppm, Test B
  percent disease control at 125 ppm: 100%
[1]; 72 h, WPM 3 da R (3 day residual), 1250 ppm, Test A
  percent disease control at 1250 ppm: 100%
[1]; 72 h, WPM 3 da R (3 day residual), 1250 ppm, Test B
  percent disease control at 1250 ppm: 100%
[2]
  ED90 (ppm): 6 ppm
[3]; Test A
  Emax at 12.5 ppm: 2%
  Emax at 125 ppm: 5%
  Emax at 1250 ppm: 100%
[3]; Test B
  Emax at 12.5 ppm: 3%
  Emax at 125 ppm: 61%
  Emax at 1250 ppm: 100%
[4]
  ED90 (ppm): 4 ppm
